The source of these data is patent US9517221B2, “(2R)-2-propyloctanoic acid for functional brain disease” (ONO PHARMACEUTICAL CO., LTD., priority 2006, dated 2016).

Each structure is given as a SMILES string.

The subject of the experiment is olfactory bulbectomized rats. Kind of experiment: Hyperemotional reactivity (hyperemotional score) of olfactory bulbectomized rats. Details: key to Hyperemotional score (mean ± S. E.), One day administration, Before administration / Hyperemotional score (mean ± S. E.), One day administration, After administration / Hyperemotional score (mean ± S. E.), Seven days administration, Before administration / Hyperemotional score (mean ± S. E.), Seven days administration, After administration: irritability score per Gomita et al. (1983) criteria. The experiment is classed as in vivo, rat. Particulars: for Hyperemotional score (mean ± S. E.), Seven days administration, After administration: 1 hour to 1 hour 10 minutes after 7 days administration; for Hyperemotional score (mean ± S. E.), Seven days administration, Before administration: before administration of the 7 days administration; for Hyperemotional score (mean ± S. E.), One day administration, After administration: 1 hour to 1 hour 10 minutes after 1 day administration; for Hyperemotional score (mean ± S. E.), One day administration, Before administration: baseline before grouping, 12 animals. On the procedure:
SPF rats (Crlj: WI) were used in the test. The animal for olfactory bulbectomy was anesthetized with pentobarbital sodium (Nembutal R Injection, Dainippon Pharmaceutical, dose: 1 mL/kg (intraperitoneal administration)), and the head was fixed using a brain stereotaxic apparatus (ASI Instruments, Inc., NARISHIGE). After incising the head skin, holes are opened at right and left olfactory bulb regions of the skull using a dental drill (manufactured by MINITOR), and the right and left olfactory bulbs were removed by sucking them using an aspirator connected to a tip-removed oral sonde, and the head skin was stitched thereafter. In this connection, in the case of the animals for sham-operation, anesthesia, brain fixation and head skin incision were carried out in the same manner as in the animals for olfactory bulbectomy, holes are opened at right and left olfactory bulb regions of the skull and the head skin was stitched without carrying out suction removal of the olfactory bulbs. The rats after olfactory bulbectomy were put into a series of five stainless steel cages, each of which was partitioned into two parts with an acrylic board for individual rearing space, and individually reared under a dark condition. The rats were subjected to the following tests of (2) and (3).
• (a) Sham-operation group (12 animals); • (b) Vehicle control group (12 animals); • (c) 3 mg/kg administration group (12 animals) of (2R)-2-propyloctanoic acid; • (d) 10 mg/kg administration group (12 animals) of (2R)-2-propyloctanoic acid; • (e) 10 mg/kg administration group (12 animals) of Milnacipran hydrochloride. [Drug Administration]
As shown below, drug solution or vehicle was administered once a day for 8 days, a total of 8 times, at a respective liquid dose of 5 mL/kg. • (a) Sham-operation group: vehicle (0.1% by volume Tween 80) aqueous solution; • (b) Vehicle control group: vehicle (0.1% by volume Tween 80) aqueous solution; • (c) 3 mg/kg administration group of (2R)-2-propyloctanoic acid: a drug solution in which (2R)-2-propyloctanoic acid was prepared to be 0.6 mg/mL with the vehicle; • (d) 10 mg/kg administration group of (2R)-2-propyloctanoic acid: a drug solution in which (2R)-2-propyloctanoic acid was prepared to be 2.0 mg/mL with the vehicle; • (e) 10 mg/kg administration group of milnacipran hydrochloride: a drug solution in which Milnacipran hydrochloride was prepared to be 2.3 mg/mL with the vehicle (Milnacipran itself is included in 2.0 mg/mL). (2) Examination of the Activity for Hyperemotional Reactivity <Evaluation Method>
Evaluation of the hyperemotional reactivity was carried out (1) before the grouping, (2) from 1 hour to 1 hour and 10 minutes after administration of the 1 day drug administration, (3) before administration of the 7 days administration and (4) from 1 hour to 1 hour and 10 minutes after the administration (a total of 4 times), by scoring the degree of irritability once a rat in accordance with the following evaluation criteria of hyperemotional reactivity (hyperemotional score: prepared based on the method of Gomita et al. (Folia Pharmacologica Japonica, 82, 267, 1983). Additionally, all of the conditions of the evaluation were shot and recorded using a video camera (SSC-DC430, SONY) and handled as reference data.

As for `CCCCCC[C@@H](CCC)C(=O)O` [(2R)-2-propyloctanoic acid], where the note is “1st day and 7th day of the administration, result in words”, the “Development of hyperemotionality versus vehicle control group” value is “inhibited development of hyperemotionality”. Also, for the setting “dose 3 mg/kg once a day”, the “Hyperemotional score (mean ± S. E.), Seven days administration, After administration” value was determined as 5.9 ± 1.5 and the “Hyperemotional score (mean ± S. E.), Seven days administration, Before administration” value turned out to be 6.3 ± 1.0. Under “dose 3 mg/kg”, the “Hyperemotional score (mean ± S. E.), One day administration, After administration” value was 8.8 ± 1.4 and the “Hyperemotional score (mean ± S. E.), One day administration, Before administration” value is 20.0 ± 0.0. Under “dose 10 mg/kg once a day”, the “Hyperemotional score (mean ± S. E.), Seven days administration, After administration” value came out at 4.8 ± 0.8 and the “Hyperemotional score (mean ± S. E.), Seven days administration, Before administration” value worked out at 6.7 ± 1.4. For the same molecule, where the note is “dose 10 mg/kg”, the “Hyperemotional score (mean ± S. E.), One day administration, After administration” value was 7.4 ± 0.9 and the “Hyperemotional score (mean ± S. E.), One day administration, Before administration” value was found to be 20.0 ± 0.0.
